In US20260015599A1, “TARGETING THE STING1 GENE BY CRISPR ACTIVATION” (AARHUS UNIVERSITET, priority 2022, published 2026):
pIC50: −log10 of the molar value. Like-named read-outs stand apart in the source and are kept apart here.

Tests used:
[1] = test system: cGAS-STING signalling pathway; test: Stimulation of human sarcoma cell lines with cGAS, STING and RIG-I agonists, cytokine secretion; type: cell-based
Procedure: For stimulation in vitro, 30,000 or 60,000 cells were seeded per well in a 24-well plate one day prior to stimulation. Cells were stimulated by transfection using Lipofectamine 2000 transfection reagent (Invitrogen, Cat#: 11668019) combined with the following agents: 2 μg/mL HT-DNA (Sigma-Aldrich, Cat#: D6898), 8 μg/mL 2′3′-cGAMP (Invivogen, Cat#: tlrl-nacga23-5), and 40 ng/ml Poly(I:C)-LMW (Invivogen, Cat#: tlrl-picw). An untreated control and a lipofectamine 2000 control were included. All samples were run in biological duplicates or triplicates. […]
Supernatants from cells stimulated with HT-DNA and Poly(I:C) were analyzed for Interferonβ (IFNβ), CXCL10 and IL-6 using Meso Scale Discovery multiplex Enzyme-linked Immunosorbent assay.
Supernatants from cells stimulated with 2′3′-cGAMP were analyzed for CXCL10 and IL-6 using sandwich ELISA (RnD Systems, Cat#: DY299 and Cat#: DY206). CCL5 content in supernatants from cells stimulated with HT-DNA and Poly(I:C) were analyzed using sandwich ELISA (RnD Systems, Cat#: DY278). […]
Functional type I IFN in supernatants from cells stimulated with 2′3′-cGAMP was quantified using a type I interferon reporter cell assay (HEK-Blue IFN-α/β) (Invivogen, Cat#: hkb-ifnab) according to manufacturer's guidelines. […] The concentration of type I IFN was determined from a standard curve of IFN-a (PBL Assay Science, Cat#: 11100-1). […]

SW872 = test: Doxorubicin IC50 viability determination (CellTiter 96 AQueous One Solution Cell Proliferation Assay); type: cell-based; details: Homo sapiens, SW872, 48 h, 48 hrs of treatment, read-out: IC50 viability concentration
Procedure: Prior to analysing the immunological reponse to doxorubicin treatment (Sigma-Aldrich, Cat#: D1515-10 MG), and IC50 viability concentration was determined for both wt cells and electroporated cells (mock and STING+). A two-fold dilution of doxorubicin including 10 different dilutions ranging from 16 μM to 0.03125 μM was added to a cell culture and viability was determined using CellTiter 96 AQueous One Solution Cell Proliferation Assay (Promega, Cat#: G3580) after 48 hrs of treatment.
(§1) Wt, mock and STING+ cells were treated with IC50 values of doxorubicin in biological triplicates (IC50 for wt: 0.5 μM and IC50 for mock and STING+: 0.3 μM) and left for 48 hrs before harvest.

STING = test: Cytokine gene expression (qPCR) in STING-reactivated SW872 after doxorubicin treatment; type: cell-based, human; details: SW872 after CRISPRa targeting STING (sgRNA #4 + dCas9-VPR mRNA), doxorubicin at IC50, 48 hrs
Procedure: For each sample 500,000 cells were resuspended in PBS, spun down at 300 xG for 5 minutes at room temperature (RT) and resuspended in 17 μL opti-MEM (Gibco, Cat#: 31985070). 1.9 μL of dCas9-VPR mRNA (Horizon Discovery, Cat#: CAS12211) and 1 μg of sgRNA was added. The cell suspension was added to an electroporation strip and electroporated on a Lonza 4D nucleofector using pulse code CM138. Afterwards, the electroporation strip containing the cells was left for 3 minutes on the bench top to allow cells to reform. The samples were diluted in preheated DMEM complete and 60,000 wt cells and 120,000 mock and STING+ cells were seeded in a 12-well plate one day prior to doxorubicin treatment to allow cells to adhere.
as §1
RNA from cells was purified using NucleoSpin RNA for the isolation of total RNA (Macherey-Nagel, Cat#: 740984.250M) according to manufacturer's guidelines. cDNA was synthesized using iScript cDNA Synthesis Kit (Bio-Rad, Cat#: 1708891) according to manufacturer's guidelines using 400ng of RNA. Real-time PCR was carried out using 1 μL of 10 ng/μL cDNA in a total volume of 10 μL using KAPA SYBR FAST (Roche, Cat#: KK4611) and the following targets and primers: […]
Samples were run in biological triplicates and technical duplicates on a 384 well plate (Hounisen, Cat#: 72.1985.202). The analysis was performed using the LightCycler 480 software version LCS480 1.5.1.62(Roche).
The cancer cell line SW872 was electroporated with dCas9-VPR mRNA and either nothing (mock) or sgRNA #4 and after additional 24 hrs each cell condition was exposed to the anthracycline chemotherapy drug doxorubicin. Doxorubicin's mode-of-action is to increase DNA damage leakage and this has shown to induce a STING-dependent immune response in conjunction to the cellular toxicity is has on cancer cells.
Supernatants were collected 48 hrs after doxorubicin treatment and immune activation was assessed by qPCR (FIG. 8A-E).

human STING gene = test: CRISPR activation of STING in SW872, STING expression by immunoblotting and qPCR; type: cell-based; details: SW872, electroporated with dCas9-VPR mRNA, 48 hours
From the text: To upregulate STING, CRISPR activation technique was used. Synthetic guideRNAs (sgRNAs) are used to guide a deactivated Cas9 (dCas9) to a site in the vicinity of the transcriptional start site of STING. Attached to the dCas9 are three transcription activators (VP64, Rta, p65; collectively termed VPR), which can activate transcription of the target gene. The dCas9-VPR is delivered as mRNA and is translated by the translation apparatus in the host cell.
To test the ability of the individual sgRNAs to upregulate STING expression, each sgRNA was tested individually as well as all 5 sgRNAs together in the human sarcoma cell line SW872 or HT1080. The sequence of the DNA binding part of the 5 sgRNAs were the following:
sgRNAs were purchased from Synthego and comprise 2′-O-Methyl at the three first and last bases as well as 3′ phosphorothioate bonds between the first three and last two bases.
dCas9-VPR mRNA (SEQ ID NO: 29 as produced by in vitro transcription) (or purchased from Horizon Discovery, Cat#: CAS12211) comprises full substitution of uridine with pseudouridine and cotranscriptional capping with CleanCap AG in a 1:4 ratio between GTP and CleanCap.
For each sample 500,000 cells were resuspended in PBS, spun down at 300 xg for 5 minutes at room temperature (RT) and resuspended in 17 μL opti-MEM (Gibco, Cat#: 31985070). 1.9 μL of dCas9-VPR mRNA (Horizon Discovery, Cat#: CAS12211) (SEQ ID NO: 29) and 1 μg of sgRNA (1 μg of each sgRNA in the sample with all 5 sgRNAs) were added. The cell suspensions were added to an electroporation strip and electroporated on a Lonza 4D nucleofector using pulse code CM138. Afterwards, the electroporation strip containing the cells were left for 3 minutes on the bench top to allow cells to reform. The samples were diluted in preheated DMEM complete medium and cells were seeded at 50-100.000 cells per well in a 24-well plate and left for various days before harvest. […]

Molecule: Nc1nc2c(ncn2[C@@H]2O[C@@H]3COP(=O)(O)O[C@H]4[C@@H](O)[C@H](n5cnc6c(N)ncnc65)O[C@@H]4COP(=O)(O)O[C@@H]2[C@@H]3O)c(=O)[nH]1 [2′3′-cGAMP, 2′,3′-cyclic GMP-AMP]
- cell responsiveness (secretion levels of IFNb, CXCL10, IL6 or CCL5) ([1]; SW872, 20-24 hours of activation): not responding

Molecule: COc1cccc2c1C(=O)c1c(O)c3c(c(O)c1C2=O)C[C@@](O)(C(=O)CO)C[C@@H]3O[C@H]1C[C@H](N)[C@H](O)[C@H](C)O1 [doxorubicin]
- pIC50 (SW872; mock and STING+ (electroporated) SW872 cells): 6.52
- pIC50 (SW872; wt SW872 cells): 6.30
- gene expression of CCL5 (STING): increased
- gene expression of CXCL10 (STING): increased
- gene expression of IFNb (STING): increased

Molecule: Poly(I:C)
- cell responsiveness (secretion levels of IFNb, CXCL10, IL6 or CCL5) ([1]; all four cell lines (HT-1080, SW872, SW982, SK-LMS1), 20-24 hours of activation): responded

Molecule: sgRNA #4: sgRNA targeting human STING gene, DNA binding part CAGAAACCGGCAGGCUCUCU (listed as RNA, chemistry not fully specified)
- STING expression (immunoblotting, qPCR) (human STING gene): equally or better than the combination of all five sgRNAs
- STING expression (immunoblotting, qPCR) (human STING gene; listed as SEQ ID NO: 4): highest activity
- STING expression (immunoblotting, qPCR) (human STING gene; listed as sgRNA#4): highest expression level
